Reference: patent US5391540A, “Substituted pyridine compounds” (Rohm and Haas Company, priority 1993, dated 1995)

How the values were obtained:
Assay in all cases: Pre-emergent herbicidal activity (Table A)
Assay type in all cases: in vivo
[1] = tested on: Annual Bluegrass; conditions: pre-emergence, Anbg, 11.2 kg/ha, 10-14 days, read-out: herbicidal rating (% inhibition)
Description: (§1) Tables A and B summarize results of tests conducted to determine the pre-emergent herbicidal activity of the compounds of this invention. The herbicidal ratings used in Tables A and B were assigned according to a scale based on the percent inhibition of each plant species. The herbicide rating symbols in Tables A and B are defined as follows: […]
(§2) One set of pre-emergent tests was conducted as follows:
(§3) Topsoil was placed in a pan and compacted to a depth of 0.95 to 1.27 cm. from the top of the pan. A predetermined number of seeds of each of several monocotyledonous and dicotyledonous annual plant species and/or vegetative propagules of various perennial plant species were placed on top of the soil. The soil required to level fill a pan after seeding or adding vegetative propagules was weighed into another pan. A known amount of the test compound dissolved or suspended in an organic solvent or water and applied in acetone or water as a carrier was thoroughly mixed with this cover soil, and the herbicide/soil mixture was used as a cover layer for the previously prepared pan. In Table A below the amounts of active ingredient were all equivalent to an application rate of 11.2 kilograms/hectare (kg/ha). After treatment, the pans were moved to a greenhouse bench where they were watered as needed to give adequate moisture for germination and growth.
(§4) Approximately 10-14 days (usually 11 days) after planting and treating, the plants were observed and the results recorded.
(§5) The plant species usually regarded as weeds which were utilized in one set of pre-emergent activity tests, the data for which are shown in Table A, are identified by letter headings printed diagonally above the columns according to the following legend: […]

[2] = tested on: Indian Mustard; conditions: Brassica juncea, pre-emergence, Inmu, 11.2 kg/ha, 10-14 days, read-out: herbicidal rating (% inhibition)
Description: as §1, §2, §3, §4, §5

[3] = tested on: Seedling Johnsongrass; conditions: Sorghum halepense, pre-emergence, Sejg, 11.2 kg/ha, 10-14 days, read-out: herbicidal rating (% inhibition)
Description: as §1, §2, §3, §4, §5

[4] = tested on: Wild Buckwheat; conditions: Fallopia convolvulus, pre-emergence, Wibw, 11.2 kg/ha, 10-14 days, read-out: herbicidal rating (% inhibition)
Description: as §1, §2, §3, §4, §5

[5] = tested on: Barnyardgrass; conditions: Echinochloa crus-galli, pre-emergence, Bygr, 11.2 kg/ha, 10-14 days, read-out: herbicidal rating (% inhibition)
Procedure, shortened: (§6)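 Percent inhibition per species, scored on a rating scale, after pre-emergent soil incorporation: test compound in acetone or water carrier mixed into cover soil, layered over seeded topsoil or vegetative propagules.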

[6] = tested on: Cocklebur; conditions: Xanthium strumarium, pre-emergence, Cobu, 11.2 kg/ha, 10-14 days, read-out: herbicidal rating (% inhibition)
Procedure, shortened: as §6

[7] = tested on: Downy Brome; conditions: Bromus tectorum, pre-emergence, Dobr, 11.2 kg/ha, 10-14 days, read-out: herbicidal rating (% inhibition)
Procedure, shortened: as §6

[8] = tested on: Morningglory; conditions: Ipomoea, pre-emergence, Mogl, 11.2 kg/ha, 10-14 days, read-out: herbicidal rating (% inhibition)
Procedure, shortened: as §6

[9] = tested on: Velvetleaf; conditions: Abutilon theophrasti, pre-emergence, Vele, 11.2 kg/ha, 10-14 days, read-out: herbicidal rating (% inhibition)
Procedure, shortened: as §6

[10] = tested on: Yellow Nutsedge; conditions: Cyperus, pre-emergence, Yens, 11.2 kg/ha, 10-14 days, read-out: herbicidal rating (% inhibition)
Procedure, shortened: as §6

[11] = tested on: Canada thistle; conditions: Cirsium arvense, pre-emergence, Cath, 11.2 kg/ha, 10-14 days, read-out: herbicidal rating (% inhibition)
Procedure, shortened: as §6

[12] = tested on: Common Lambsquarters; conditions: Chenopodium album, pre-emergence, Colq, 11.2 kg/ha, 10-14 days, read-out: herbicidal rating (% inhibition)
Procedure, shortened: as §6

[13] = tested on: Pennsylvania Smartweed; conditions: pre-emergence, Pesw, 11.2 kg/ha, 10-14 days, read-out: herbicidal rating (% inhibition)
Procedure, shortened: as §6

[14] = tested on: Quackgrass; conditions: pre-emergence, Rhqg, 11.2 kg/ha, 10-14 days, read-out: herbicidal rating (% inhibition)
Procedure, shortened: as §6

[15] = tested on: Rhizome Johnsongrass; conditions: Sorghum halepense, pre-emergence, Rhjg, 11.2 kg/ha, 10-14 days, read-out: herbicidal rating (% inhibition)
Procedure, shortened: as §6

SMILES | inhibition at 11200 g/ha [1] [%] | inhibition at 11200 g/ha [2] [%] | inhibition at 11200 g/ha [3] [%] | inhibition at 11200 g/ha [4] [%] | inhibition at 11200 g/ha [5] [%] | inhibition at 11200 g/ha [6] [%] | inhibition at 11200 g/ha [7] [%] | inhibition at 11200 g/ha [8] [%] | inhibition at 11200 g/ha [9] [%] | inhibition at 11200 g/ha [10] [%] | inhibition at 11200 g/ha [11] [%] | inhibition at 11200 g/ha [12] [%] | inhibition at 11200 g/ha [13] [%] | inhibition at 11200 g/ha [14] [%] | inhibition at 11200 g/ha [15] [%]
C=C1CC(c2c(C(F)(F)F)nc(OC)c(C(=O)OC)c2CC(C)C)OC1=O (stereo not drawn) [Compound 90, 3-pyridinecarboxylic acid, 5-(tetrahydro-4-methylene-5-oxo-2-furanyl)-2-methoxy-4-(2-methylpropyl)-6-(trifluoromethyl)-, methyl ester] | 75 to 100 | 0 to 24 | 25 to 49 | 0 to 24 | 50 to 74 | 0 to 24 | 50 to 74 | 0 to 24 | 0 to 24 | 0 to 24 |  |  |  |  | 
CCCc1c(C(=O)OC)c(OC)nc(C(F)(F)F)c1C(=O)OC [Compound 91, 3,5-pyridinedicarboxylic acid, 2-methoxy-4-propy1-6-(trifluoromethyl)-, dimethyl ester] |  |  |  |  | 75 to 100 | 25 to 49 | 75 to 100 | 75 to 100 | 75 to 100 | 75 to 100 | 75 to 100 | 75 to 100 | 75 to 100 | 75 to 100 | 75 to 100
COC(=O)c1c(OC)nc(C(F)(F)F)c(C(=O)OC)c1CC1CC1 [Compound 92, 3,5-pyridinedicarboxylic acid, 4-(cyclopropylmethyl)-2-methoxy-6-(trifluoromethyl)-, dimethyl ester] |  |  |  |  | 75 to 100 | 50 to 74 | 75 to 100 | 75 to 100 | 75 to 100 | 75 to 100 | 75 to 100 | 75 to 100 | 75 to 100 | 75 to 100 | 0 to 24
COC(=O)c1c(OC)nc(C(F)(F)F)c(C2SCCCS2)c1CC(C)C [Compound 94, 3-pyridinecarboxylic acid, 5-(1,3-dithian-2-yl)-2-methoxy-4-(2-methylpropyl)-6-(trifluoromethyl)-, methyl ester] | 75 to 100 | 75 to 100 | 75 to 100 | 75 to 100 | 75 to 100 | 25 to 49 | 50 to 74 | 75 to 100 | 75 to 100 | 0 to 24 |  |  |  |  | 
COC(=O)c1c(OC)nc(C(F)(F)F)c(C(Cl)=NCCCl)c1CC(C)C [Compound 95, 3-pyridinecarboxylic acid, 5-[(chloro[2-chloroethyl)imino)methyl]-2-methoxy-4-(2-methylpropyl)-6-(trifluoromethyl)-, methyl ester] | 75 to 100 | 50 to 74 | 75 to 100 | 75 to 100 | 75 to 100 | 0 to 24 | 25 to 49 | 0 to 24 | 50 to 74 | 0 to 24 |  |  |  |  | 
COC(=O)c1c(OC)nc(C(F)(F)F)c(NC(=O)CCCBr)c1CC(C)C [Compound 120, 3-pyridinecarboxylic acid, 5-[(4-bromo-1-oxobutyl)amino]-2-methoxy-4-(2-methylpropyl)-6-(trifluoromethyl)-, methyl ester] | 75 to 100 |  | 75 to 100 |  | 75 to 100 | 75 to 100 | 75 to 100 | 75 to 100 | 75 to 100 | 50 to 74 |  |  |  |  | 
